From PubChem BioAssay (NCI)
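Interpolation was linear, between the two tested concentrations surrounding the appropriate level; five concentrations were tested over 48 hours in 96-well plates. TGI: concentration producing complete growth inhibition.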

Assays:
Test in all cases: growth of human tumour cells (NCI), 48 h
SNB-19 CNS = test system: SNB-19 CNS
RPMI-8226 leukemia = test system: RPMI-8226 leukemia
CAKI-1 renal = test system: CAKI-1 renal
TK-10 renal = test system: TK-10 renal
A549 NSCLC = test system: A549 NSCLC
HCT-116 colon = test system: HCT-116 colon
PC-3 prostate = test system: PC-3 prostate
NCI-H226 lung = test system: NCI-H226 lung
NCI-H522 lung = test system: NCI-H522 lung
BT-549 breast = test system: BT-549 breast
HOP-62 NSCLC = test system: HOP-62 NSCLC
SF-295 CNS = test system: SF-295 CNS
SF-268 CNS = test system: SF-268 CNS
MALME-3M melanoma = test system: MALME-3M melanoma
K-562 leukemia = test system: K-562 leukemia
SF-539 CNS = test system: SF-539 CNS
UO-31 renal = test system: UO-31 renal
SW-620 colon = test system: SW-620 colon

SMILES | TGI (SNB-19 CNS) | TGI (RPMI-8226 leukemia) | TGI (CAKI-1 renal) | TGI (TK-10 renal) | TGI (A549 NSCLC) | TGI (HCT-116 colon) | TGI (PC-3 prostate) | TGI (NCI-H226 lung) | TGI (NCI-H522 lung) | TGI (BT-549 breast) | TGI (HOP-62 NSCLC) | TGI (SF-295 CNS) | TGI (SF-268 CNS) | TGI (MALME-3M melanoma) | TGI (K-562 leukemia) | TGI (SF-539 CNS) | TGI (UO-31 renal) | TGI (SW-620 colon)
COc1ccc(N(C(=O)OC(C)(C)C)[C@@H]2C(C)=C[C@H]([S@@](=O)c3ccc(C)cc3)[C@@H]3C(=O)N(C)C(=O)[C@@H]32)cc1 | 51.5 µM | 44.3 µM | 52.6 µM | 43.4 µM | > 100 µM | 35.9 µM | > 100 µM | 34.6 µM | 18.5 µM | 33.9 µM | 64.2 µM | 35.9 µM | 33.9 µM | 71.8 µM | > 100 µM | 43.5 µM | 30.1 µM | 45.5 µM
C(=N\NC1=NCCCN1)/c1ccc(-c2cn3cc(/C=N/NC4=NCCCN4)ccc3n2)cc1 | > 100 µM | > 88.6 µM | > 100 µM | > 100 µM | > 100 µM | > 100 µM | > 57.3 µM | > 100 µM | > 100 µM | > 100 µM | > 100 µM | > 100 µM | > 100 µM | 87.4 µM | > 84.3 µM | > 100 µM | > 100 µM | > 100 µM
CC(=O)NC1C(OCC(=O)NC(C)C(=O)NC(CCC(=O)NCCCCCNc2ccc([N+](=O)[O-])c3[nH]c4ccccc4c(=O)c23)C(N)=O)C(O)C(CO)OC1(C)OCc1ccccc1 (centres undefined) | > 50 µM | 36.6 µM | > 50 µM | > 50 µM | > 50 µM | > 50 µM | > 50 µM | > 50 µM | > 50 µM | > 50 µM | > 50 µM | > 50 µM | > 50 µM | 26.9 µM | > 50 µM | > 50 µM | > 50 µM | > 50 µM
S=C1c2cc(Cl)ccc2NC(=NC2CCCC2)C2CSCN12 (centres undefined) | > 100 µM | > 100 µM | > 100 µM | > 100 µM | > 100 µM | > 100 µM | > 100 µM | > 100 µM | > 100 µM | > 100 µM | > 100 µM | > 100 µM | > 100 µM | > 100 µM | > 100 µM | > 100 µM | > 100 µM | > 100 µM
CCOC(=O)c1ccc(N=C/C=C(\Nc2ccc(C(=O)OCC)cc2)c2ccc3ccccc3c2)cc1 | > 100 µM | 52.1 µM | 83.8 µM | 53.4 µM | > 100 µM | > 100 µM | > 100 µM | 96.9 µM | > 100 µM | 42.4 µM | 95.8 µM | > 100 µM | > 100 µM | 43.6 µM | 56.7 µM | 39.2 µM | > 100 µM | > 100 µM
CC(C)(C)c1cc(C2COC(=O)COCCOCC(=O)OCCOCCO2)cc(C(C)(C)C)c1O (centres undefined) | > 100 µM | > 100 µM | 33.4 µM | 32.4 µM | > 100 µM | > 100 µM | 63.3 µM | > 100 µM | > 94 µM | > 77.7 µM | > 92.9 µM | 53.7 µM | > 90.7 µM | > 100 µM | > 100 µM | > 100 µM | 30.5 µM | > 100 µM
C=C(C)C1CC2=C(C(=O)OC)C=C(O2)C(C(=C)C)[C@@H]2OC(=O)/C(=C\C1O)[C@H]2N(C)C (some centres undefined) | 50.9 µM | 14.9 µM | 21.2 µM | 15.7 µM | 30.8 µM | 27.7 µM | 24.5 µM | 21.7 µM | 10.3 µM | 24.3 µM | 34.2 µM | 32 µM | 32.9 µM | 34.5 µM | > 100 µM | 22.9 µM | 26.4 µM | 30.3 µM
CCOC(=O)c1c(OCC)[nH]c(=O)c(C(c2ccc(F)cc2)c2c(O)c(C(=O)OCC)c(OCC)[nH]c2=O)c1O | 42.2 µM | 58.3 µM | 42.4 µM | 67.7 µM | 29.3 µM | > 100 µM | 34.6 µM | 26.1 µM | 42 µM | 23.6 µM | 36.1 µM | 49.8 µM | 33.6 µM | 29.5 µM | 50.8 µM | 23.5 µM | 25.7 µM | 51.1 µM
CCC(C#N)N(Cc1cccc(CN(C(C)=O)C(C#N)CC)c1)C(C)=O (centres undefined) | > 100 µM | > 100 µM | > 100 µM | > 100 µM | > 100 µM | > 100 µM | > 100 µM | > 100 µM | > 100 µM | > 100 µM | > 100 µM | > 100 µM | > 100 µM | > 100 µM | > 100 µM | > 100 µM | > 100 µM | > 100 µM
CC(=O)C1=CC=C/C1=N\Nc1ccccc1 | 47.6 µM | 7.75 µM | 11.8 µM | 18.6 µM | 35.1 µM | 17.5 µM | 18.7 µM | 39.8 µM | 19.1 µM | 27.4 µM | 50.9 µM | 28.2 µM | 23.8 µM | 28.4 µM | 20.5 µM | 8.64 µM | 25.8 µM | 15.6 µM
OC1(c2ccc(Cl)cc2)c2ccccc2C2=Nc3ccccc3CN21 (centres undefined) | > 67.6 µM | > 100 µM | > 100 µM | > 100 µM | 28.6 µM | 19 µM | > 100 µM | > 71.9 µM | 67.2 µM | > 100 µM | 30.8 µM | > 50.4 µM | > 100 µM | 92 µM | > 100 µM | > 100 µM | > 100 µM | > 100 µM
CC(=O)OCc1ccc(-c2nc(C#N)c(N)o2)o1 | > 10 µM | > 10 µM | > 10 µM | > 10 µM | > 10 µM | > 10 µM | > 10 µM | > 10 µM | > 10 µM | > 10 µM | > 10 µM | > 10 µM | > 10 µM | > 10 µM | > 10 µM | > 10 µM | > 10 µM | > 10 µM
CCOC(=O)C1(C(=O)OCC)C[C@H]2CON=C2[C@@H]1c1ccc(C(F)(F)F)cc1 | > 100 µM | > 100 µM | > 100 µM | > 100 µM | > 100 µM | > 100 µM | > 100 µM | > 100 µM | 61 µM | > 100 µM | 64.9 µM | > 100 µM | > 100 µM | > 100 µM | > 100 µM | > 100 µM | 27.5 µM | > 100 µM
